Common to all, as to format: cell-based, human
Assay [1] deals with MV4-11 (MLL-AF4). As to the kind of experiment: Proliferation study, CellTiterGlo, 4 days (Example 102), MV4-11. The settings on record: MV4-11, 4 days treatment; for IC50: CellTiterGlo; for MV4-11 (MLL-AF4) % max: maximal inhibition. The text has this: The objective of the study was to evaluate the ability of representative compounds of the present invention, inhibitors of Menin/MLL interaction to inhibit cell proliferation. The proliferation inhibitory effect was investigated in two human MLL-leukemia cells selected on the bases of MLL fusion protein and listed in Table 102. HL-60 cell line was used as negative control.
ATP is present in all metabolically active cells and is considered as a marker for cell viability and proliferation. The metabolic cell activity was determined using the CellTiter-Glo kit from Promega, an ATP monitoring system based on the production of luminescence by the reaction of ATP with added UltraGlo® recombinant luciferase (Kawano et al., 2016), according to the supplier's experimental recommendations.
The described assay evaluates the ability of 4 representative compounds to inhibit the cell proliferation in the human MLL-leukemia cells plus a negative control cell line.
The assay provides potency values (IC50) for each test compound at a single time point Day 4 (T4).
Seven concentrations of the compounds (2.00E-05-6.67E-06-2.22E-06-7.41E-07-2.47E-07-8.23E-08-2.74E-08M), were assessed in duplicate in an individual test occasion in all the cell lines. MI-503 (Borkin et al., 2015) was used as reference compound and was tested at the same concentrations as the NCEs. 100% of proliferation is represented by the untreated cells (0.2% DMSO). The cell growth was monitored up to 4 days in culture.
MV4-11, MOLM-13 and HL-60 cells (see Table 2) were maintained in RPMI-1640 medium (Invitrogen, Cat. n. 618700, Batch n. 1965930) supplemented with 10% of Heat Inactivated FBS (Invitrogen, Cat n. 10500, Batch n. 08Q8078K) and 1% Pen-Strep (Invitrogen, Cat. N. 15140, Batch n. 1910859) and cultured at 37° C. in a humidified incubator with 5% CO2. All the cell lines grow in suspension and the cell density was maintained in a range of 2×10^5-1×10^6 viable cells/ml. Cells were pelleted at 130 g×5 min and conditioned medium was used to dilute the cell suspension.
Test items were dissolved in glass vials at 10 mM in DMSO with purity ≥99.9% (Sigma, D8418, batch n. SHBH4245V) and stored at −20° C. in 1.5 mL Eppendorf tubes.
Serial dilutions 1 to 3 in DMSO 100% were prepared starting from a 10 mM stock solutions to generate 7 points concentration response curve (CRC).
For each plate to test, one 0.4 μL copy plate and four 0.3 μL copy plates were then stamped into 96-well plates not treated for cell adhesion (Sarstedt—cat.no. 82.1581.001) by acoustic liquid Handling, Echo, at a concentration which was 500 fold the final assay concentration. Stamped plates were stored at −20° C. The final concentrations for the reference compound, MI-503, and the test items were: 2.00E-05, 6.67E-06, 2.22E-06, 7.41E-07, 2.47E-07, 8.23E-08 and 2.74E-08 M.
Cells were plated in 96-well flat bottom microtiter plates at cell density of 15,000 cells/ml for HL-60, 1000 cells/ml for MOLM-13 and 10,000 cell/ml for MV4-11. Cells were treated with 0.2% DMSO (Sigma, D8418, batch n. SHBH4245V) or serial dilutions of compounds (0.027 μM-20 μM) in DMSO (0.2% final concentration). Cells were incubated in a 5% CO2 incubator at 37° C. for 4 days. A CellTiterGlo viability assay (Promega) was employed. Luminescence was read by using VictorV (Perkin Elmer) multilabel plate reader using the standard protocol for luminescence in 96 well plate. The experiment was performed in duplicate.
(§1) Data were expressed as % of inhibition compared to the 0.2% DMSO negative control, and was calculated as follows: […]
CRCs were analysed by GraphPad and IC50 values were calculated by non-linear regression using 4 parameter-logistic equation. IC50 (μM) values were reported in the final data table. The curve fittings were performed leaving free all the parameters. Any constrain were reported in the results table.
On the technique in general: Cellular ATP, detected with luciferase, serves as a proxy for viable cell number.

The subject of a further assay is MOLM-13 (MLL-AF9). Briefly: LTP assay, CellTiterGlo, T4-T14 (Example 103), MOLM-13. The settings on record: for inhibition of cell viability (in words): MOLM-13, LTP assay. As to the method:
(§2) The day of the experiment (T0) all the cell line suspensions were counted by Cell Viability Analyser, Vi-CELL and properly diluted with fresh medium to obtain the cell density reported in the Test System paragraph.
(§3) Cells were tested after 4 passages after thawing.
(§4) 200 μL/well and 150 μL/well of cell suspension were added into the 0.4 μL/well and 0.3 μL/well compound plates, respectively. • Cell plate containing 200 μL/well suspension was incubated at 37° C. in a humidified incubator with 5% CO2. • From each well of the 150 μL/well cell assay plate, 100 μL were harvested and transferred into a 96-well Optiplate (Perkin Elmer, Cat. n. 6005290) and cell viability was measured as described in 4.3 paragraphs (T0).
(§5) After four days in culture (T4) 150 μL/well of fresh medium were added into a new 0.3 μL/well copy compound plate. • From each well of the 200 μL/well cell assay plate: • 100 μL were sampled for the cell viability measurement as described in 4.3 paragraphs (T4). • 50 μL were harvested and added to the 150 μL/well compound plate prepared as described in the first point to dilute 1:4 the cell suspension. • The cell assay plate diluted and containing 200 μL/well suspension were incubated at 37° C. in a humidified incubator with 5% Co2.
(§6) At T7-T11-T14 it was proceeded as described in T4, with the exception that no further cell dilution was carried out at T14.
(§7) Plates containing the samples to be tested were equilibrated at room temperature for approximately 30 min and then 30 μL/well of the Promega CellTiterGlo® reagent were added.
(§8) Contents will be mixed for 5 min on an orbital shaker to induce cell lysis and then incubated at room temperature for an additional 10 min to stabilize the luminescent signal.
(§9) Luminescence was read by using VictorV (Perkin Elmer) multilabel plate reader using the standard protocol for luminescence in 96 well plate.
as §1
(§10) CRCs were analysed by GraphPad and IC50 values were calculated by non-linear regression using 4 parameter-logistic equation. IC50 (μM) values were reported in the final data table.
(§11) The curve fittings were performed leaving free all the parameters. Any constrain were reported in the results table.

Assay [2] relates to MV4-11 (MLL-AF4). As to the kind of experiment: LTP assay, CellTiterGlo, T4-T14 (Example 103), MV4-11. The settings on record: for inhibition of cell viability (in words): MV4-11, LTP assay. As to the method: as §2, §3, §4, §5, §6, §7, §8, §9, §1, §10, §11
Where [3] appears, read: Homo sapiens, MV4-11, 96 h, read-out: MV4-11 (MLL-AF4) IC50.
The mark [4] stands for this setting: Homo sapiens, MV4-11, 96 h, read-out: MV4-11 (MLL-AF4) pIC50 (converted).
Setting [5] is: Homo sapiens, MOLM-13, 96 h, MOLM-13 (MLL-AF9), T4 (Day 4), read-out: IC50 T4 (Day 4).
[6] abbreviates: Homo sapiens, MOLM-13, MOLM-13 (MLL-AF9), T7, read-out: IC50 T7.
The mark [7] stands for this setting: Homo sapiens, MOLM-13, MOLM-13 (MLL-AF9), T11, read-out: IC50 T11.
Setting [8] is: Homo sapiens, MOLM-13, MOLM-13 (MLL-AF9), T14, read-out: IC50 T14.
Where [9] appears, read: MOLM-13 (MLL-AF9), T4 (Day 4), read-out: IC50 T4 (Day 4).
The mark [10] stands for this setting: Homo sapiens, MV4-11, 96 h, MV4-11 (MLL-AF4), T4 (Day 4), read-out: IC50 T4 (Day 4).
The mark [11] stands for this setting: Homo sapiens, MV4-11, MV4-11 (MLL-AF4), T7, read-out: IC50 T7.
[12] abbreviates: Homo sapiens, MV4-11, MV4-11 (MLL-AF4), T11, read-out: IC50 T11.
[13] abbreviates: Homo sapiens, MV4-11, MV4-11 (MLL-AF4), T14, read-out: IC50 T14.

Results on three compounds are retold here after patent US20240140953A1, “INHIBITORS OF MENIN-MLL INTERACTION” (BIOMEA FUSION, INC., priority 2018, published 2024).

Like-named read-outs stand apart in the source and are kept apart here. Where only a bound is given, the exact number is not on record here.

As to `O=C(Nc1ccc(-c2cc3c(N4CCOCC4)ncnc3[nH]2)cc1)Nc1cc(-c2cccnc2)n[nH]1` [Compound 9, 1-{4-[4-(morpholin-4-yl)-7H-pyrrolo[2,3-d]pyrimidin-6-yl]phenyl}-3-[3-(pyridin-3-yl)-1H-pyrazol-5-yl]urea], the IC50 in the assay on MV4-11 (MLL-AF4) [1] (setting [3]) and with MV4-11 (MLL-AF4) [1] (setting [4]) was 490 nM in each case. Further, in the assay on MV4-11 (MLL-AF4) [1], the “MV4-11 (MLL-AF4) % max” value came out at 102%.
As to `Cn1nc(-c2cccnc2)cc1CC(=O)Nc1ccc(-c2cc3c(N4CCOCC4)ncnc3[nH]2)cc1` [Compound 11, 2-[1-methyl-3-(pyridin-3-yl)-1H-pyrazol-5-yl]-N-{4-[4-(morpholin-4-yl)-7H-pyrrolo[2,3-d]pyrimidin-6-yl]phenyl}acetamide], the IC50 is 200 nM with MV4-11 (MLL-AF4) [1] (setting [3]); 282 nM with MV4-11 (MLL-AF4) [1] (setting [4]); 280 nM in the assay with MV4-11 (MLL-AF4) [1] (read-out: MV4-11 (MLL-AF4) IC50); 660 nM in the assay on MOLM-13 (MLL-AF9) (setting [5]); 513 nM in the assay on MOLM-13 (MLL-AF9) (setting [6]); 320 nM with MOLM-13 (MLL-AF9) (setting [7]). Also, the IC50 in the assay with MOLM-13 (MLL-AF9) (setting [8]) is 420 nM; with MOLM-13 (MLL-AF9) (setting [9]) it was 661 nM; in the assay with MV4-11 (MLL-AF4) [2] (setting [10]), 650 nM; in the assay with MV4-11 (MLL-AF4) [2] (setting [11]), 500 nM; in the assay with MV4-11 (MLL-AF4) [2] (setting [12]), 420 nM; in the assay with MV4-11 (MLL-AF4) [2] (setting [13]), 310 nM. In addition, the IC50 was found to be 646 nM in the assay on MV4-11 (MLL-AF4) [2] (MV4-11 (MLL-AF4), T4 (Day 4), read-out: IC50 T4 (Day 4)) and 501 nM in the assay on MV4-11 (MLL-AF4) [2] (MV4-11 (MLL-AF4), T7, read-out: IC50 T7). For the same compound, in the assay with MV4-11 (MLL-AF4) [1], the “MV4-11 (MLL-AF4) % max” value stood at 100%. Besides, the “inhibition of cell viability (in words)” value in the assay with MOLM-13 (MLL-AF9) and with MV4-11 (MLL-AF4) [2] was “fully inhibited cell viability” throughout.
As to `O=C(Cc1cc(-c2cccnc2)n[nH]1)Nc1ccc(-c2nc3c(N4CCOCC4)ncnc3[nH]2)cc1` [Compound 12, N-{4-[6-(morpholin-4-yl)-9H-purin-8-yl]phenyl}-2-[3-(pyridin-3-yl)-1H-pyrazol-5-yl]acetamide], the IC50 in the assay with MV4-11 (MLL-AF4) [1] (setting [3]) was 430 nM; in the assay on MV4-11 (MLL-AF4) [1] (setting [4]) it was 427 nM; in the assay with MOLM-13 (MLL-AF9) (setting [5]), more than 5000 nM; in the assay on MOLM-13 (MLL-AF9) (setting [6]), 5750 nM; in the assay with MOLM-13 (MLL-AF9) (setting [7]) it was 562 nM; in the assay on MOLM-13 (MLL-AF9) (setting [8]), more than 5000 nM. The IC50 in the assay with MOLM-13 (MLL-AF9) (setting [9]) was more than 10000 nM; in the assay on MV4-11 (MLL-AF4) [2] (setting [10]), 1550 nM; in the assay on MV4-11 (MLL-AF4) [2] (setting [11]) it was 1260 nM; in the assay on MV4-11 (MLL-AF4) [2] (setting [12]), 850 nM; in the assay with MV4-11 (MLL-AF4) [2] (setting [13]), 870 nM. Also, the “MV4-11 (MLL-AF4) % max” value in the assay with MV4-11 (MLL-AF4) [1] is on record as 89%. The “inhibition of cell viability (in words)” value in the assay on MV4-11 (MLL-AF4) [1] (up to 20 μM) was “fully inhibited”; in the assay on MOLM-13 (MLL-AF9), “partial effect”; in the assay with MV4-11 (MLL-AF4) [2], “partial effect”.
